# Experimental data reported in PubChem BioAssay (NCI).
# “And” between values parts separate entries of the source, which are not always exact repeats. Equal entries are not always repeated.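 Interpolation was linear, between the two tested concentrations surrounding the appropriate level; five concentrations were tested over 48 hours in 96-well plates. At the GI50, growth is halved. The concentration for full growth arrest is given as TGI.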
# Tested on: CAKI-1 renal
# Assay: growth of human tumour cells (NCI), 48 h
SMILES,GI50 [µM],TGI
NC(=O)/C=C/C(=O)c1c(Cl)cccc1Cl,0.971,2.5 µM
CC1(C)N=C(N)N=C(N)N1c1ccc(CCCCc2ccc(Cl)cc2S(=O)(=O)F)c(Cl)c1,2.04,18.2 µM
O=C(Nc1ccc(Nc2ccncc2)cc1)c1ccc([N+](=O)[O-])cc1,6.02,19.3 µM
C(=NCCN1CCOCC1)=NC1CCCCC1,–,> 100 µM
COc1ccccc1/C=N\N/C(N)=N\N=C\c1ccccc1OC,0.207,4.11 µM
COc1cccc(CC(C)=C(c2ccc(OCCN(C)C)cc2)c2ccc(OCCN(C)C)cc2)c1,3.96,8.27 µM
COC(=O)COc1ccccc1/C=C1\N=C(c2ccccc2)N(c2cc(C(F)(F)F)ccc2Cl)C1=O,79,> 100 µM
C=C1C(=O)OC2CC(C)C(C(CC(C)=O)OC(C)=O)=CCC12 (configuration not stated),–,8.05 µM
S=C(Nc1ccc(Cl)cc1)Nc1ccc(-c2nc3ccccc3s2)cc1,10.8,28 µM
COC(=O)C[C@](O)(CCCC(C)(C)O)C(=O)O[C@@H]1C(OC)=C[C@]23CCCN2CCc2cc4c(cc2[C@H]13)OCO4,0.252,1.61 µM and 1.2 µM
CC(=O)Nc1ccc(S(=O)(=O)N2C(=O)CCC2C(=O)Nc2ccc(Br)cc2)cc1 (configuration not stated),4.37,17.7 µM
CO/N=C(/C)c1cccc(Nc2cc(-n3nnc4ccccc43)nc3ccccc23)c1,22.5,> 100 µM
C[N+](C)(C)CC1CCCc2ccccc2C1=O (configuration not stated),2.06,6.71 µM and 5.04 µM
COc1cc(C(=O)N2CCN(C=O)C2=S)cc(OC)c1OC,13.6,26.7 µM

# Tested on: T-47D breast
# Assay: growth of human tumour cells (NCI), 48 h
SMILES,TGI [µM],GI50 [µM]
CN(C)CCNC(=O)c1cccc2ccc(-c3ccc(O)cc3)nc12,6.98,–
CSc1nc(=O)n(CCC#N)nc1SC,62.7,–
COc1cc(Nc2ncccc2C(=O)NCc2cn(Cc3cccc(Oc4ccccc4)c3)nn2)cc(OC)c1,> 100,4.58
COc1cc(-c2oc(=O)ccc2C#Cc2ccccn2)cc(OC)c1OC,> 41.8,3.46
COc1cccc(C2CC(C)(O)Oc3cc4c(cc32)OCO4)c1O (configuration not stated),> 100,–
Cn1cc(C2=C(c3ccc(N)cc3)C(=O)NC2=O)c2ccccc21,> 25,> 24
Cc1cc(Cl)cc(OCCn2cc(F)cn2)c1-c1nc(N)nc2c1CN(C(=O)NCC(C)(F)F)C2,> 100,0.235
COc1ccc(/C=C\[N+](=O)[O-])cc1OC,38.2,7.6
CCN(CC)CCC(CNc1ccnc2cc(Cl)ccc12)c1ccc(Cl)cc1 (configuration not stated),4.21,1.92
COc1cccc(F)c1C(=O)c1cnc(NC2CCN(S(C)(=O)=O)CC2)nc1N,24.4,5.22
COC(=O)c1ccc2c(c1)nc(NC(=O)c1ccccc1)n2CCCc1ccccc1,> 100,4.35
Cc1ccc(S(=O)(=O)Nc2ccccc2C=O)cc1,72.7,–
O=C(Nc1ccc2ncccc2c1)Nc1ccc2ncccc2c1,> 100,–
CC1(C)S[C@@H]2[C@H](NC(=O)C3(N)CCCCC3)C(=O)N2[C@H]1C(=O)O,> 100,–
NC(=O)/C=C/C(=O)c1c(Cl)cccc1Cl,0.408,0.191
CC1(C)N=C(N)N=C(N)N1c1ccc(CCCCc2ccc(Cl)cc2S(=O)(=O)F)c(Cl)c1,7.56,1.87
O=C(Nc1ccc(Nc2ccncc2)cc1)c1ccc([N+](=O)[O-])cc1,20,3.3
C(=NCCN1CCOCC1)=NC1CCCCC1,> 100,–
COc1ccccc1/C=N\N/C(N)=N\N=C\c1ccccc1OC,7.36,0.457
COc1cccc(CC(C)=C(c2ccc(OCCN(C)C)cc2)c2ccc(OCCN(C)C)cc2)c1,1.77,0.681
COC(=O)COc1ccccc1/C=C1\N=C(c2ccccc2)N(c2cc(C(F)(F)F)ccc2Cl)C1=O,> 100,29.1
C=C1C(=O)OC2CC(C)C(C(CC(C)=O)OC(C)=O)=CCC12 (configuration not stated),42,–
S=C(Nc1ccc(Cl)cc1)Nc1ccc(-c2nc3ccccc3s2)cc1,38.9,5.19
COC(=O)C[C@](O)(CCCC(C)(C)O)C(=O)O[C@@H]1C(OC)=C[C@]23CCCN2CCc2cc4c(cc2[C@H]13)OCO4,–,0.0297
CC(=O)Nc1ccc(S(=O)(=O)N2C(=O)CCC2C(=O)Nc2ccc(Br)cc2)cc1 (configuration not stated),5.93,0.532
CO/N=C(/C)c1cccc(Nc2cc(-n3nnc4ccccc43)nc3ccccc23)c1,> 100,> 100
C[N+](C)(C)CC1CCCc2ccccc2C1=O (configuration not stated),–,19.1
COc1cc(C(=O)N2CCN(C=O)C2=S)cc(OC)c1OC,90.6,20.7

# Tested on: NCI-H460 lung
# Assay: growth of human tumour cells (NCI), 48 h
SMILES,GI50,TGI
CN(C)CCNC(=O)c1cccc2ccc(-c3ccc(O)cc3)nc12,637 nM,2.85 µM and 2.99 µM
CSc1nc(=O)n(CCC#N)nc1SC,–,> 100 µM
COc1cc(Nc2ncccc2C(=O)NCc2cn(Cc3cccc(Oc4ccccc4)c3)nn2)cc(OC)c1,3980 nM,> 100 µM
COc1cc(-c2oc(=O)ccc2C#Cc2ccccn2)cc(OC)c1OC,2600 nM,> 54.2 µM
COc1cccc(C2CC(C)(O)Oc3cc4c(cc32)OCO4)c1O (configuration not stated),–,> 92.7 µM
Cn1cc(C2=C(c3ccc(N)cc3)C(=O)NC2=O)c2ccccc21,23300 nM,> 25 µM
Cc1cc(Cl)cc(OCCn2cc(F)cn2)c1-c1nc(N)nc2c1CN(C(=O)NCC(C)(F)F)C2,41.4 nM,> 100 µM
COc1ccc(/C=C\[N+](=O)[O-])cc1OC,4990 nM,21.2 µM
CCN(CC)CCC(CNc1ccnc2cc(Cl)ccc12)c1ccc(Cl)cc1 (configuration not stated),2030 nM,11.1 µM
COc1cccc(F)c1C(=O)c1cnc(NC2CCN(S(C)(=O)=O)CC2)nc1N,862 nM,> 25 µM
COC(=O)c1ccc2c(c1)nc(NC(=O)c1ccccc1)n2CCCc1ccccc1,1220 nM,> 100 µM
Cc1ccc(S(=O)(=O)Nc2ccccc2C=O)cc1,–,47 µM
O=C(Nc1ccc2ncccc2c1)Nc1ccc2ncccc2c1,–,> 100 µM
CC1(C)S[C@@H]2[C@H](NC(=O)C3(N)CCCCC3)C(=O)N2[C@H]1C(=O)O,–,> 100 µM
NC(=O)/C=C/C(=O)c1c(Cl)cccc1Cl,1820 nM,3.49 µM
CC1(C)N=C(N)N=C(N)N1c1ccc(CCCCc2ccc(Cl)cc2S(=O)(=O)F)c(Cl)c1,117 nM,13.5 µM
O=C(Nc1ccc(Nc2ccncc2)cc1)c1ccc([N+](=O)[O-])cc1,4240 nM,16.5 µM
C(=NCCN1CCOCC1)=NC1CCCCC1,–,> 100 µM
COc1ccccc1/C=N\N/C(N)=N\N=C\c1ccccc1OC,348 nM,4.37 µM
COc1cccc(CC(C)=C(c2ccc(OCCN(C)C)cc2)c2ccc(OCCN(C)C)cc2)c1,2830 nM,7.38 µM
COC(=O)COc1ccccc1/C=C1\N=C(c2ccccc2)N(c2cc(C(F)(F)F)ccc2Cl)C1=O,59600 nM,> 100 µM
C=C1C(=O)OC2CC(C)C(C(CC(C)=O)OC(C)=O)=CCC12 (configuration not stated),–,41.9 µM
S=C(Nc1ccc(Cl)cc1)Nc1ccc(-c2nc3ccccc3s2)cc1,13900 nM,33.4 µM
COC(=O)C[C@](O)(CCCC(C)(C)O)C(=O)O[C@@H]1C(OC)=C[C@]23CCCN2CCc2cc4c(cc2[C@H]13)OCO4,16 nM and < 10 nM,0.27 µM and 0.088 µM
CC(=O)Nc1ccc(S(=O)(=O)N2C(=O)CCC2C(=O)Nc2ccc(Br)cc2)cc1 (configuration not stated),2630 nM,24.5 µM
CO/N=C(/C)c1cccc(Nc2cc(-n3nnc4ccccc43)nc3ccccc23)c1,28000 nM,> 100 µM
